Source: patent publication US20230303712A1, “METHODS OF TREATING GLIOBLASTOMA” (Ramot at Tel-Aviv University Ltd., priority 2020, published 2023)
“Also recorded” adds a separate entry of the source.

What was measured:
[1] = test system: murine GB cells (GL261, iAGR53, PNp53, EGFRviii-shP16); assay: 3D spheroid invasion in Matrigel, murine GB cells co-cultured with murine microglia; type: cell-based
Experimental: Tumor spheroids. Tumor spheroids were prepared from mCherry/iRFP/GFP-labeled patient-derived, human U251 or murine GB cells (GL261, iAGR53, PNp53, EGFRviii-shP16), either alone or co-cultured with unlabeled primary human/murine microglia (4:1 ratio), using our modified hanging-drop method, as we previously described. For assessment of cell invasion, GB spheroids (4,000 cells/sphere) were embedded in Matrigel (Corning), seeded in a 96-well plate, and incubated with complete DMEM or complete DMEM supplemented with SELPi (0.5 µM). […] For FACS analysis, GB spheroids (8,000 cells/sphere) were embedded in Matrigel, seeded in a 12-well plate, and treated with complete DMEM, 0% serum microglia medium or microglia CM for 24-48 h. Cells were then recovered using Cell Recovery Solution (Corning) and further analyzed by FACS.

GL261 GB tumors = assay: SELPi treatment in murine GL261 GB model; type: in vivo, C57BL/6 mice
Experimental: Tumor volume was evaluated by MRI.
SELPi treatments. KF 38789 (SELPi) is a commercially-available P-Selectin inhibitor manufactured by Tocris BioScience. […] This compound is commonly used for research of immune-related processes such as tumor metastases formation. For the experiment described above, SELPi (0.8 mg/ml) was dissolved in DMSO (0.01%), polyethyleneglycol (93.2 mg/ml), Tween-80 (14.8 mg/ml) and DDW. Mice were injected with 16 mg/kg IV, twice a week, three times a week or QOD as described above. As control (vehicle), mice were injected with DMSO (0.01%), polyethyleneglycol (93.2 mg/ml), Tween-80 (14.8 mg/ml), in DDW at equivalent volume.
MRI imaging. Tumor bearing mice were imaged at the Sackler Cellular & Molecular Imaging Center (SCMIC), Tel Aviv University. Mice were anesthetized by ketamine (150 mg/kg) and xylazine (12 mg/kg) injected IP. T1 with contrast agent (Magnetol, Gd-DTPA, Soreq M.R.C. Israel Radiopharmaceuticals) and T2 weighted images were taken by 4.7T MRI - MRS 4000™ (MR solutions).

P-Selectin = molecular target: T1, P-Selectin (Homo sapiens, UniProt P16109); details: cited from earlier work
T1 sequence (P16109 42-830): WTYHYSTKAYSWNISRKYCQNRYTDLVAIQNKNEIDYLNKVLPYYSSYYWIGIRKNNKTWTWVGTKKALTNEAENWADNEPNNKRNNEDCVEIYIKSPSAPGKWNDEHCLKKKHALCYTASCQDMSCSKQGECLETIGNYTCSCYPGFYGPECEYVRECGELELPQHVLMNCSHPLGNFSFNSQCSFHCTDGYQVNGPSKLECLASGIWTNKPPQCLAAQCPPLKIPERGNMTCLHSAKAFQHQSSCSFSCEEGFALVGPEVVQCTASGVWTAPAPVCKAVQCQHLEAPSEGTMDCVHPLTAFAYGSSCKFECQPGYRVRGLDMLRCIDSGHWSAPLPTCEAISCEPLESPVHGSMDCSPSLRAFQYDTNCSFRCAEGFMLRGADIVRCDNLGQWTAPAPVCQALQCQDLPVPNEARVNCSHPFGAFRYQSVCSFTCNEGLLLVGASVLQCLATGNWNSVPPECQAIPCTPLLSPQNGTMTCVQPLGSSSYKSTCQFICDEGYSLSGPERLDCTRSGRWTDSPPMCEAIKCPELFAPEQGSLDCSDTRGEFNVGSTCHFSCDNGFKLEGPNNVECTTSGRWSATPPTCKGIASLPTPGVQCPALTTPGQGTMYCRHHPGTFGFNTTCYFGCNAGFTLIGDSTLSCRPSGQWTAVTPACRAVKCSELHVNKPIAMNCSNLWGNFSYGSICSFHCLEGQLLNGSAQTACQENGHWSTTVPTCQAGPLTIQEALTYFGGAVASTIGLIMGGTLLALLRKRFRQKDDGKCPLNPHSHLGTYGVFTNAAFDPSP

E-Selectin = molecular target: T2, E-Selectin (Homo sapiens, UniProt P16581); details: cited from earlier work
T2 sequence (P16581 22-610): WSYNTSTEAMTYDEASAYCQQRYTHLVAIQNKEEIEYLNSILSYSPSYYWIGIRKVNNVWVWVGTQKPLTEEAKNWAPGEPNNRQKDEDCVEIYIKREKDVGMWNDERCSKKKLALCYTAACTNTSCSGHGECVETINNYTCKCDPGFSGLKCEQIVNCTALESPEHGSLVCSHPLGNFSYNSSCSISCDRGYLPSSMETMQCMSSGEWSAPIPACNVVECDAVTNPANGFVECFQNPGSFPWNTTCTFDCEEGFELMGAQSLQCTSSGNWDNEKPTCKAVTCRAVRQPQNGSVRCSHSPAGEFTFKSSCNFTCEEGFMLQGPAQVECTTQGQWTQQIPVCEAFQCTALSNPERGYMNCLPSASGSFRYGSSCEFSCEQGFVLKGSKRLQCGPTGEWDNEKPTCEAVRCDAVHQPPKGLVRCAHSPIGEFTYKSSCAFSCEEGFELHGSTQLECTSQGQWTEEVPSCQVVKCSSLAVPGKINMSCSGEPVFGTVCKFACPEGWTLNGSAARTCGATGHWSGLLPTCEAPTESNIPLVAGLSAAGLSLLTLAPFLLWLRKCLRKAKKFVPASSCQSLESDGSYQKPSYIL

COc1ccc(C2CC(c3c(O)cc(C)oc3=O)=NCCS2)c(OC)c1 (stereo not shown) [SELPi, 3-[7-(2,4-Dimethoxyphenyl)-2,3,6,7-tetrahydro-1,4-thiazepin-5-yl]-4-hydroxy-6-methyl-2H-pyran-2-one]
invasion of GB spheroids co-cultured with murine microglia ([1]; mesenchymal, proneural and classical lenti-induced murine GB subtypes): significantly reduced the invasion
3D spheroid invasion, murine GL261 ([1]; murine GL261 GB model): effect of SELPi on GB spheroids was observed
tumor volume (MRI) (GL261 GB tumors; GL261, SELPi IV 16 mg/kg three times a week, 16 mg/kg): significant reduction in tumor volume; also recorded: reduced tumor growth
CD4+ and CD8+ T cells in tumors (GL261 GB tumors; GL261 tumors): increase
CD4+/FOXP3+ T cells in tumors (GL261 GB tumors; GL261 tumors): decrease
blood vessel density (CD31 immunostaining) (GL261 GB tumors; GL261 tumors): clear reduction
proliferation (Ki-67 immunostaining) (GL261 GB tumors; GL261 tumors): clear reduction
IC50 (P-Selectin; P-Selectin inhibition): 1970 nM
blocking of SELP-binding (P-Selectin; in vitro and in vivo): block SELP-binding
inhibiting effect on E-Selectin (E-Selectin): no inhibiting effects
